Bounds are passed on as bounds.

Chain of PI3Kγ (P48736 whole entry, species assumed): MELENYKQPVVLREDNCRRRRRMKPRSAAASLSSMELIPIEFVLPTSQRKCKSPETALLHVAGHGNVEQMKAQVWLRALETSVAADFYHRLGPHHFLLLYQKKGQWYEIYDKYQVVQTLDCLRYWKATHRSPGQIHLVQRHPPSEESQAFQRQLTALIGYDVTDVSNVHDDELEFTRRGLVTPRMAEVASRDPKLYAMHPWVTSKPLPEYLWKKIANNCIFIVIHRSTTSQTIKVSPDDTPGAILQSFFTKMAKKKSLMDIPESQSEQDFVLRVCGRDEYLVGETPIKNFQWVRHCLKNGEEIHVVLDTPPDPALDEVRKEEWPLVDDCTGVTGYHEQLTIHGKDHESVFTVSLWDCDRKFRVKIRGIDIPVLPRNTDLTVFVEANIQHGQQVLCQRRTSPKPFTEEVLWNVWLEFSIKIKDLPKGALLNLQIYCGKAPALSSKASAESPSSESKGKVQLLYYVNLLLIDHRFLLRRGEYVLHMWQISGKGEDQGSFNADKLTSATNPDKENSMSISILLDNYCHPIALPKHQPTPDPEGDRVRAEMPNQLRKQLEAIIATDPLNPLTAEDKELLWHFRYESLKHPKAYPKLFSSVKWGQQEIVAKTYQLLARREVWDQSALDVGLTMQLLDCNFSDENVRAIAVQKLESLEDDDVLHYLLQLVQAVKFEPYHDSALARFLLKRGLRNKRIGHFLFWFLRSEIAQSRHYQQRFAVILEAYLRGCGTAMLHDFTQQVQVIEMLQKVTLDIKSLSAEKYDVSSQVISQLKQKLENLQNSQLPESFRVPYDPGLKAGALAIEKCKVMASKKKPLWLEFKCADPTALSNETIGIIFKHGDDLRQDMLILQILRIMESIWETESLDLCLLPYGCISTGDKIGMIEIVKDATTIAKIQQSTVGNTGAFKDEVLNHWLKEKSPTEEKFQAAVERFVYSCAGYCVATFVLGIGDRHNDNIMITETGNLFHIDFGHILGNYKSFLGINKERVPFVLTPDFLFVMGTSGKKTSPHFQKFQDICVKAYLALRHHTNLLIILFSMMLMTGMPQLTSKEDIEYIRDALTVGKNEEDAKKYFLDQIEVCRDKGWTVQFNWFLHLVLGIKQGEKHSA

One assay addresses PI3Kγ (Homo sapiens, UniProt P48736). The experiment in a line: PI3K inhibition assay, Protocol B (33P-ATP, glass fiber filter plate).
Details: not given
The assay is classed as biochemical. Here is the method: Compounds were screened for their ability to inhibit PI3Kγ using one of the assays below.
To each well of a 96 well polystyrene plate [Corning Costar Item No. 3795], 61 μL of Reaction Mix [55 mM HEPES pH 7.5, 11 mM MgCl2, 27 mM NaCl, 5.5 mM DTT, 0.11 mg/mL BSA, 51 μM phosphatidylinositol(4,5)bisphosphate diC16 (PI(4,5)P2; Avanti Polar Lipids, Cat. No. 840046P) and 18 nM PI3Kγ] was added. Separately, ten 2.5-fold serial dilutions of compounds of the invention were prepared in 100% DMSO with the last two wells reserved for no inhibitor controls (enzyme+no compound and no enzyme control+no compound). 1 μL it of compound or DMSO alone was added by 12-channel hand pipet and incubated for 10 minutes at room temperature (25° C.). To initiate the reaction, 5 μl of ATP Mix [49 mM HEPES pH 7.5 and 1340 ^33P-ATP was added and allowed to incubate for 30 min. at 25° C. Final concentrations of the reaction were 50 mM HEPES 7.5, 10 mM MgCl2, 25 mM NaCl, 5 mM DTT, 0.1 mg/mL BSA, 46 μM PI(4,5)P2, 16.6 nM PI3Kγ, and 100 μM ATP. Final inhibitor concentrations ranged from 10 μM to 1 nM.
After incubation, 60 μL of the reaction was quenched by transferring to 504 of 20% TCA/Water in each well of a 96 well glass fiber filter plate [Millipore Cat. No. MAFBN0B50]. The plate was dried by vacuum and then washed five times in a Bio-Tek Instruments ELX-405 Auto Plate Washer with 150 μL of 5% TCA/Water. 50 μL of scintillation fluid was added to each well and the plate was read immediately on a Perkin-Elmer TopCount™ NXT liquid scintillation counter.
Inhibition data was background subtracted (no enzyme control+no inhibitor control) and fit to the competitive tight binding Ki equation described by Morrison and Stone. [J. F. Morrison and S. R. Stone, Comments Mol. Cell. Biophys. 2 (1985) 347-368].
As for `CC(=O)Nc1nc(C)c(-c2ccc(C(=O)N3CCC(C#N)(c4ccccc4)CC3)o2)s1` [Compound 16], the Ki lay in the range of 0.1 to 1 µM.

Staying with this assay, now noted: Protocol B; 100 μM ATP, 46 μM PI(4,5)P2 diC16, 16.6 nM PI3Kγ; average if more than one result; read-out: PI3Kγ enzyme inhibition Ki.
In the case of `CC(=O)Nc1nc(C)c(-c2ccc(C(=O)N(C)Cc3ccco3)o2)s1` [Compound 2], the Ki lay within 0.1 to 1 µM.

For `CC(=O)Nc1nc(C)c(-c2ccc(C(=O)NCc3cc(Cl)cc(Cl)c3)o2)s1` [Compound 3], the Ki was 1 to 5 µM. Still for that read-out and setting: as for `CC(=O)Nc1nc(C)c(-c2ccc(C(=O)N3CCCC3c3cccc(Br)c3)o2)s1` (stereo not shown) [Compound 4], the figure is 1 to 5 µM; as for `CC(=O)Nc1nc(C)c(-c2ccc(C(=O)N3CCSCC3)o2)s1` [Compound 5], 0.1 to 1 µM; as for `CC(=O)Nc1nc(C)c(-c2ccc(C(=O)N3CCCC(C)C3)o2)s1` (stereo not shown) [Compound 6], 0.1 to 1 µM. The same measure, in the same setting: as for `CC(=O)Nc1nc(C)c(-c2ccc(C(=O)N3CCN(C)CC3)o2)s1` [Compound 7], the figure is 1 to 5 µM; as for `CC(=O)Nc1nc(C)c(-c2ccc(C(=O)N3CCN(Cc4ccccc4)CC3)o2)s1` [Compound 8], 0.1 to 1 µM.

Regarding `CC(=O)Nc1nc(C)c(-c2ccc(C(=O)NCCC#N)o2)s1` [Compound 9], the Ki lay within 0.1 to 1 µM.

Regarding `CC(=O)Nc1nc(C)c(-c2ccc(C(=O)N[C@@H](CO)c3ccccc3)o2)s1` [Compound 10, (R)-5-(2-acetamido-4-methylthiazol-5-yl)-N-(2-hydroxy-1-phenylethyl)furan-2-carboxamide], the Ki fell in the range of 0.1 to 1 µM. On to `CC(=O)Nc1nc(C)c(-c2ccc(C(=O)N3CCCCC3)o2)s1` [Compound 11], for which the Ki lay within 0.1 to 1 µM.

Regarding `CC(=O)Nc1nc(C)c(-c2ccc(C(=O)NC3(CO)CCCC3)o2)s1` [Compound 12], the Ki is 0.1 to 1 µM.

`CC(=O)Nc1nc(C)c(-c2ccc(C(=O)N3CCCC(c4ccc(F)cc4)C3)o2)s1` (stereo not shown) [Compound 13]: the inhibition constant Ki lay within 0.1 to 1 µM.

In the case of `CC(=O)Nc1nc(C)c(-c2ccc(C(=O)N3CCC(O)C3)o2)s1` (stereo not shown) [Compound 14], the Ki fell in the range of 0.1 to 1 µM. Same read-out and setting: as for `CC(=O)Nc1nc(C)c(-c2ccc(C(=O)N3CCC(N4CCCC4)CC3)o2)s1` [Compound 15], the figure is 1 to 5 µM.

Turning to `CC(=O)Nc1nc(C)c(-c2ccc(C(=O)N3CCCC(O)C3)o2)s1` (stereo not shown) [Compound 17], the Ki lay within 0.1 to 1 µM. Same read-out and setting: the same measure for `CC(=O)Nc1nc(C)c(-c2ccc(C(=O)NCc3c(Cl)cccc3Cl)o2)s1` [Compound 18]: 0.1 to 1 µM; for `CC(=O)Nc1nc(C)c(-c2ccc(S(N)(=O)=O)o2)s1` [Compound 19]: below 0.1 µM. On the same count and under the same terms, the same measure for `CNS(=O)(=O)c1ccc(-c2sc(NC(C)=O)nc2C)o1` [Compound 20]: below 0.1 µM; for `CC(=O)Nc1nc(C)c(-c2ccc(S(=O)(=O)N(C)C)o2)s1` [Compound 21]: below 0.1 µM; for `CC(=O)Nc1nc(C)c(-c2ccc(S(=O)(=O)NCCO)o2)s1` [Compound 22]: below 0.1 µM. On the same count and under the same terms, the same measure for `COCCNS(=O)(=O)c1ccc(-c2sc(NC(C)=O)nc2C)o1` [Compound 23]: below 0.1 µM. Take `CC(=O)Nc1nc(C)c(-c2ccc(S(=O)(=O)N(C)CCO)o2)s1` [Compound 24]: the inhibition constant Ki was below 0.1 µM.

Consider `CC(=O)Nc1nc(C)c(-c2ccc(S(=O)(=O)NCC(C)C)o2)s1` [Compound 25], for which the Ki is below 0.1 µM.

Take `CC(=O)Nc1nc(C)c(-c2ccc(S(=O)(=O)NCCC#N)o2)s1` [Compound 26]: the Ki was below 0.1 µM.

Regarding `CC(=O)NCCNS(=O)(=O)c1ccc(-c2sc(NC(C)=O)nc2C)o1` [Compound 27], the Ki was below 0.1 µM. As for `CC(=O)Nc1nc(C)c(-c2ccc(S(=O)(=O)NC3CC3)o2)s1` [Compound 28], the Ki was below 0.1 µM.

Take `CC(=O)Nc1nc(C)c(-c2ccc(S(=O)(=O)NC3CCCC3)o2)s1` [Compound 29]: the Ki is below 0.1 µM.

For the molecule `CC(=O)Nc1nc(C)c(-c2ccc(S(=O)(=O)N3CCCCC3)o2)s1` [Compound 30], the Ki is below 0.1 µM.

Take `CC(=O)Nc1nc(C)c(-c2ccc(S(=O)(=O)N3CCN(C)CC3)o2)s1` [Compound 31]: the Ki was below 0.1 µM. Still for that read-out and setting: as for `CC(=O)Nc1nc(C)c(-c2ccc(S(=O)(=O)N3CC(C)OC(C)C3)o2)s1` (stereo not shown) [Compound 32], the figure is below 0.1 µM; as for `CC(=O)Nc1nc(C)c(-c2ccc(S(=O)(=O)Nc3ccccc3)o2)s1` [Compound 33], below 0.1 µM; as for `CC(=O)Nc1nc(C)c(-c2ccc(S(=O)(=O)NCc3ccccc3)o2)s1` [Compound 34], below 0.1 µM. As to `CC(=O)Nc1nc(C)c(-c2ccc(S(=O)(=O)N3CCN(Cc4ccccc4)CC3)o2)s1` [Compound 35], the inhibitory constant (Ki) was below 0.1 µM.

Turning to `CC(=O)Nc1nc(C)c(-c2ccc(S(=O)(=O)NCc3cccc(F)c3)o2)s1` [Compound 36], the Ki is below 0.1 µM. Still for that read-out and setting: as for `CC(=O)Nc1nc(C)c(-c2ccc(S(=O)(=O)NCc3cccc(Cl)c3)o2)s1` [Compound 37], the figure is below 0.1 µM; as for `CC(=O)Nc1nc(C)c(-c2ccc(S(=O)(=O)NCc3cccc(Br)c3)o2)s1` [Compound 38], below 0.1 µM; as for `CC(=O)Nc1nc(C)c(-c2ccc(S(=O)(=O)NCc3cccc(I)c3)o2)s1` [Compound 39], below 0.1 µM. Turning to `CC(=O)Nc1nc(C)c(-c2ccc(S(=O)(=O)NCc3cccc([N+](=O)[O-])c3)o2)s1` [Compound 40], the Ki is below 0.1 µM.

For `CC(=O)Nc1nc(C)c(-c2ccc(S(=O)(=O)NCc3cccc(O)c3)o2)s1` [Compound 41], the Ki is below 0.1 µM. Same read-out and setting: as for `CC(=O)Nc1nc(C)c(-c2ccc(S(=O)(=O)NCc3cccc(C(F)(F)F)c3)o2)s1` [Compound 42], the figure is below 0.1 µM; as for `CC(=O)Nc1nc(C)c(-c2ccc(S(=O)(=O)NCc3cccc(OC(F)(F)F)c3)o2)s1` [Compound 43], 0.1 to 1 µM; as for `CC(=O)Nc1nc(C)c(-c2ccc(S(=O)(=O)NCc3cc(Cl)cc(Cl)c3)o2)s1` [Compound 44], 0.1 to 1 µM. On the same count and under the same terms, as for `COc1cc(CNS(=O)(=O)c2ccc(-c3sc(NC(C)=O)nc3C)o2)cc(OC)c1` [Compound 45], the figure is 0.1 to 1 µM. The same measure, in the same setting: the same measure for `CC(=O)Nc1nc(C)c(-c2ccc(S(=O)(=O)NCc3cc(F)cc(F)c3)o2)s1` [Compound 46]: below 0.1 µM. As to `CC(=O)Nc1nc(C)c(-c2ccc(S(=O)(=O)NCc3cccc(NS(C)(=O)=O)c3)o2)s1` [Compound 47], the inhibitory constant (Ki) was below 0.1 µM. The same measure, in the same setting: the same measure for `CC(=O)Nc1nc(C)c(-c2ccc(S(=O)(=O)N(C)Cc3ccccc3)o2)s1` [Compound 48]: below 0.1 µM.

As for `CC(=O)Nc1nc(C)c(-c2ccc(S(=O)(=O)N[C@@H](C)c3ccccc3)o2)s1` [Compound 49], the Ki was below 0.1 µM. Same read-out and setting: as for `CC[C@H](NS(=O)(=O)c1ccc(-c2sc(NC(C)=O)nc2C)o1)c1ccccc1` [Compound 50], the figure is below 0.1 µM. On the same count and under the same terms, the same measure for `CC(=O)Nc1nc(C)c(-c2ccc(S(=O)(=O)N[C@H](C)c3ccccc3)o2)s1` [Compound 51]: below 0.1 µM. On the same count and under the same terms, the same measure for `CC(=O)Nc1nc(C)c(-c2ccc(S(=O)(=O)N[C@H](CCO)c3ccccc3)o2)s1` [Compound 52]: below 0.1 µM. As for `CC(=O)Nc1nc(C)c(-c2ccc(S(=O)(=O)N[C@@H](CO)c3ccccc3)o2)s1` [Compound 53], the Ki was below 0.1 µM. Regarding `CC(=O)Nc1nc(C)c(-c2ccc(S(=O)(=O)NC(C)(C)c3ccccc3)o2)s1` [Compound 54], the Ki is below 0.1 µM.

Turning to `CC(=O)Nc1nc(C)c(-c2ccc(S(=O)(=O)NCc3ccccc3Cl)o2)s1` [Compound 55], the Ki is below 0.1 µM. On to `CC(=O)Nc1nc(C)c(-c2ccc(S(=O)(=O)N[C@H]3CCc4ccccc43)o2)s1` [Compound 56], for which the Ki is below 0.1 µM. Same read-out and setting: as for `CC(=O)Nc1nc(C)c(-c2ccc(S(=O)(=O)N[C@@H]3CCc4ccccc43)o2)s1` [Compound 57], the figure is below 0.1 µM; as for `COc1ccccc1CNS(=O)(=O)c1ccc(-c2sc(NC(C)=O)nc2C)o1` [Compound 58], below 0.1 µM. On the same count and under the same terms, as for `CC(=O)Nc1nc(C)c(-c2ccc(S(=O)(=O)NCCF)o2)s1` [Compound 59], the figure is below 0.1 µM; as for `CC(=O)Nc1nc(C)c(-c2ccc(S(=O)(=O)NCC(F)F)o2)s1` [Compound 60], below 0.1 µM.

Consider `CC(=O)Nc1nc(C)c(-c2ccc(S(=O)(=O)N(C)CC(F)(F)F)o2)s1` [Compound 61], for which the Ki is below 0.1 µM. Same read-out and setting: the same measure for `COC(=O)C(NS(=O)(=O)c1ccc(-c2sc(NC(C)=O)nc2C)o1)c1ccccc1` (stereo not shown) [Compound 62]: below 0.1 µM; for `CC(=O)Nc1nc(C)c(-c2ccc(S(=O)(=O)NC(C#N)c3ccccc3)o2)s1` (stereo not shown) [Compound 63]: below 0.1 µM. The same measure, in the same setting: the same measure for `CC(=O)Nc1nc(C)c(-c2ccc(S(=O)(=O)NCC#N)o2)s1` [Compound 64]: below 0.1 µM; for `CC(=O)Nc1nc(C)c(-c2ccc(S(=O)(=O)Nc3ccccc3C)o2)s1` [Compound 65]: below 0.1 µM.

Values taken from patent US8268818B2, “Inhibitors of C-MET and uses thereof” (Vertex Pharmaceuticals Incorporated, priority 2006, dated 2012).
